Here are results for two compounds from paper PMC12169608, “Peptidomimetic Phenoxymethyl Ketone Warheads as Potent Dual-Mode Inhibitors against SARS-CoV‑2 M^pro and Cathepsin” (Journal of Medicinal Chemistry, 2025).

Like-named read-outs stand apart in the source and are kept apart here.

A short description of data set [1]: Mouse liver microsomal stability. Conditions: microsomes, pH 7.4. On the technique in general: Microsomes from liver hold many membrane-bound enzymes, among them those of drug oxidation.
The conditions of data set [2]: hamster, in vivo, ip, 100 mg/kg.
Another data set relates to MERS-CoV. Briefly: microbe, parasite or virus in culture. The settings on record: Middle East respiratory syndrome-related coronavirus, Huh-7, read-out: pEC50 (MERS-CoV CPE reduction assay) (converted). Format: cell-based.
Data set [3] can be described thus: in vitro. The settings on record: mouse, microsomes, pH 7.4.
Data set [4] is described as follows: in vitro. The settings on record: African green monkey.
For data set [5] the following is noted: microsomes, 10 µM, pH 7.4.
The target of data set [6] is T1, human cathepsin L (hCTSL) (Homo sapiens, UniProt P07711).
T1 construct: purchased R&D Systems
As to the kind of experiment: hCTSL biochemical assay.

Data set [7] can be described thus: Hamster hepatocyte stability. The settings on record: cryopreserved hepatocytes; for half-life at 2 h, 2 µM: t1/2 (hamster hepatocytes), without ritonavir.
Another data set addresses SARS-CoV-2 M^pro (Severe acute respiratory syndrome coronavirus 2, UniProt P0DTD1). As to the kind of experiment: biochemical. The data set is classed as biochemical. Conditions: read-out: M^pro biochemical assay pIC50 (converted).
Data set [8] can be described thus: in vitro. The settings on record: mouse, hepatocytes; for hepatocyte CLint at 2 h, 2 µM: CLint (mouse hepatocytes).
For data set [9] the following is noted: 3 h, 2 µM.
The next data set has as its system SARS-CoV. As to the kind of experiment: microbe, parasite or virus in culture. The data set is classed as cell-based. The settings on record: Severe acute respiratory syndrome coronavirus, read-out: pEC50 (SARS-CoV CPE reduction assay) (converted).
For another data set, the target named is T2, thrombin (Homo sapiens, UniProt P00734).
T2 construct: preincubated with thrombin (10 nM, Sigma); purchased Sigma-Aldrich
As to the kind of experiment: Protease panel: thrombin. Format: biochemical.

The target of data set [10] is mouse cathepsin B (mCTSB) (Mus musculus, UniProt P10605). As to the kind of experiment: mCTSB biochemical assay. Conditions: read-out: pIC50 (mouse CTSB) (converted).
mouse cathepsin B (mCTSB), sequence (P10605 80-339): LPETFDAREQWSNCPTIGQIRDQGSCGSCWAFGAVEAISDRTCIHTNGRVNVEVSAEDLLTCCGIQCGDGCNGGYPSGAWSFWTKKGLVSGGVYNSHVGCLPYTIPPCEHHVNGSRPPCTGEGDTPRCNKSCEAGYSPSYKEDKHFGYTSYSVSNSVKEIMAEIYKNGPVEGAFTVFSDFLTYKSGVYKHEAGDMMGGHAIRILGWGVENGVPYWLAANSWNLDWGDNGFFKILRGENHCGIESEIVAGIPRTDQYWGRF

T1 sequence (P07711 114-333): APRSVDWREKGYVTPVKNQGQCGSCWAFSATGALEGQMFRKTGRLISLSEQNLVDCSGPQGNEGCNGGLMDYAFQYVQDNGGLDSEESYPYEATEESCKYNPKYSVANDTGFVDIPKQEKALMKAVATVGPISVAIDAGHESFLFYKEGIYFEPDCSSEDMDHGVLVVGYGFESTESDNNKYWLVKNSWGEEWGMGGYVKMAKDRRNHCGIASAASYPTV

Turning to `COc1cccc2[nH]c(C(=O)N[C@@H](Cc3cccc(F)c3)C(=O)N[C@@H](C[C@@H]3CCNC3=O)C(=O)COc3c(F)c(F)c(CO)c(F)c3F)cc12` [compound 1, N-((S)-3-(3-Fluorophenyl)-1-oxo-1-(((S)-3-oxo-1-((S)-2-oxopyrrolidin-3-yl)-4-(2,3,5,6-tetrafluoro-4-(hydroxymethyl)phenoxy)butan-2-yl)amino)propan-2-yl)-4-methoxy-1H-indole-2-carboxamide], the half-life (commonly how long it takes for the measured level to halve) at 1 µM in data set [1] amounted to 1.18 min. The “clinical signs upon intraperitoneal dosing” value in data set [2] is reported as “no clinical signs have been observed”. Moreover, the EC50 was 0.00525 µM in the data set with MERS-CoV and 0.302 µM in the data set with SARS-CoV. For the same compound, the microsomal CLint (as a rule, a measure of how fast metabolising enzymes remove a compound, apart from limits set by blood flow) at 1 µM in “in vitro [3]” turned out to be 586 µL/min/mg. The amount remaining (in general, the share of the starting amount still present when the sample was taken) at 1 h, 1 µM in the data set “in vitro [3]” stood at 0%. The compound also showed a CC50 in the data set “in vitro [4]” of more than 1 µM. In addition, the “Peak area (%) by LCMS, mouse liver microsomal stability assay of 1” value in data set [5] (0 h) came to 100%; in [5] (5 min), 86.9%; in data set [5] (0.25 h), 67.9%; in data set [5] (0.5 h), 48.7%; in data set [5] (0.75 h), 35.8%; in data set [5] (1 h), 32.6%. Further, the “hCTSL biochemical assay pIC50” value in data set [6] worked out at 7.54. In [7], this compound showed a half-life at 2 h, 2 µM of 7.9 min. Besides, the IC50 at SARS-CoV-2 M^pro is 0.00245 µM. In addition, in “in vitro [8]”, the intrinsic clearance (hepatocyte CLint) (as a rule, the capacity of the preparation to metabolise the compound, expressed as a volume cleared per time) at 2 h, 2 µM worked out at 186 µL/min/1e6 cells. In addition, in data set [9], the “mouse plasma protein binding, fraction bound (Fb)” value was determined as 98.06%. Further, at 10 µM the inhibition on thrombin was 0.2 ± 1.1%.

As to `CC(C)(O)c1c(F)c(F)c(OCC(=O)[C@H](C[C@@H]2CCNC2=O)NC(=O)[C@@H]2[C@@H]3[C@H](CN2C(=O)[C@@H](NC(=O)C(F)(F)F)C(C)(C)C)C3(C)C)c(F)c1F` [compound 14, (1R,2S,5S)-3-((S)-3,3-Dimethyl-2-(2,2,2-trifluoroacetamido)butanoyl)-6,6-dimethyl-N-((S)-3-oxo-1-((S)-2-oxopyrrolidin-3-yl)-4-(2,3,5,6-tetrafluoro-4-(2-hydroxypropan-2-yl)phenoxy)butan-2-yl)-3-azabicyclo[3.1.0]hexane-2-carboxamide], the “clinical signs upon intraperitoneal dosing” value in data set [2] (female, Syrian golden) was “the animals were found dull and lethargic 15 min up until 45 min postdosing”. Moreover, in “in vitro [4]”, the CC50 is more than 0.501 µM. Further, the IC50 in data set [10] was 5.01 µM. In addition, in [6], the “hCTSL biochemical assay pIC50” value is less than 4.30. Besides, the “hCTSL activity (in words)” value in data set [6] (biochemical assay) was “no hCTSL and hCTSB activity was observed”. This compound gave a half-life at 2 h, 2 µM in [7] of 11.2 min. Besides, the half-life at 1 µM in [7] (with ritonavir 0.25 µM (compound/ritonavir 4:1), t1/2 (hamster hepatocytes + ritonavir 4:1), compound/ritonavir 4:1) stood at 15.5 min. Moreover, the hepatocyte CLint at 1 µM in the data set “in vitro [8]” (CLint (mouse hepatocytes + ritonavir 4:1)) stood at 26.7 µL/min/1e6 cells. Besides, in the data set “in vitro [8]”, the intrinsic metabolic clearance (hepatocyte CLint) at 2 h, 2 µM came to 112 µL/min/1e6 cells. Further, the “mouse plasma protein binding, fraction bound (Fb)” value in data set [9] was 99.24%. The inhibition (commonly the relative decrease from the control value, in per cent) at 10 µM against thrombin was 4.1 ± 1.5%.
